Converted amounts (≈) assume the structure as drawn. The source made the active and inactive calls. The calls are words filed in the database; no cut-off is given here.
Key:
[1] = system: Cryptococcus neoformans; experiment: Antifungal activity against Cryptococcus neoformans H99 after 48 hrs by growth curve assay; format: functional; settings: var grubii H99 
[2] = system: Cryptococcus neoformans; experiment: Antifungal activity against Cryptococcus neoformans H99 assessed as damaged cell membranes at 4 ug/ml after 24 hrs by TEM analysis; format: functional, organism-based; settings: var grubii H99
[3] = system: Cryptococcus gattii; experiment: Antifungal activity against Cryptococcus gattii ATCC 14116 after 72 hrs by spectrophotometery; settings: ATCC 14116, 72 h
[4] = system: Cryptococcus neoformans; experiment: Antifungal activity against Cryptococcus neoformans H99 after 72 hrs by growth curve assay; format: functional; settings: var grubii H99 
[5] = system: Cryptococcus neoformans; experiment: Antifungal activity against Cryptococcus neoformans H99 assessed as up-regulation of CDK1 expression at 2 to 4 ug/ml after 24 hrs by Western blot analysis; format: functional, organism-based; settings: var grubii H99
[6] = system: Nakaseomyces glabratus; experiment: Antifungal activity against Candida glabrata 8535 after 48 hrs by spectrophotometery; format: functional; settings: Nakaseomyces glabratus, 8535, 48 h
[7] = system: Cryptococcus neoformans; experiment: Antibiofilm activity against Cryptococcus neoformans H99 assessed as inhibition of cellular surface hydrophobicity at 10 ug/ml incubated for 24 hrs by water-hydrocarbon two-phase assay; format: functional, organism-based; settings: var grubii H99
[8] = system: Cryptococcus neoformans; experiment: Induction of cell cycle arrest in Cryptococcus neoformans H99 assessed as accumulation at G1 phase at 4 ug/ml after 24 hrs by propidium iodide-staining based FACS analysis (reference value: 44.50%); format: functional, var grubii H99
[9] = system: Cryptococcus neoformans; experiment: Antifungal activity against Cryptococcus neoformans H99 infected in ICR mouse assessed as reduction in brain fungal load at 20 mg/kg, po administered daily for 5 days; format: functional, organism-based; settings: var grubii H99
[10] = system: Cryptococcus neoformans; experiment: Antifungal activity against Cryptococcus neoformans H99 assessed as up-regulation of cyclin B1 expression at 2 to 4 ug/ml after 24 hrs by Western blot analysis; format: functional, organism-based; settings: var grubii H99
[11] = system: Cryptococcus neoformans; experiment: Inhibition of melanin production in Cryptococcus neoformans H99 at 2.5 ug/ml; format: functional, organism-based; settings: var grubii H99
[12] = system: Trichophyton rubrum; experiment: Antifungal activity against Trichophyton rubrum TIA after 48 hrs by spectrophotometery; format: functional
[13] = system: Cryptococcus neoformans; experiment: Antifungal activity against Cryptococcus neoformans H99 assessed as up-regulation of Cdc25C expression at 2 to 4 ug/ml after 24 hrs by Western blot analysis; format: functional, organism-based; settings: var grubii H99
[14] = system: Cryptococcus neoformans; experiment: Antifungal activity against Cryptococcus neoformans H99 assessed as cell wall collapse at 4 ug/ml after 24 hrs by TEM analysis; format: functional, organism-based; settings: var grubii H99
[15] = system: Cryptococcus neoformans; experiment: Antifungal activity against Cryptococcus neoformans ATCC 34877 after 72 hrs by spectrophotometery; format: functional; settings: ATCC 34877, 72 h
[16] = system: Candida parapsilosis; experiment: Antifungal activity against Candida parapsilosis 5008 after 48 hrs by spectrophotometery; format: functional; settings: Lodderomyces parapsilosis, 5008, 48 h
[17] = system: Cryptococcus neoformans; experiment: Induction of cell cycle arrest in Cryptococcus neoformans H99 assessed as accumulation at G2 phase at 4 ug/ml after 24 hrs by propidium iodide-staining based FACS analysis (reference value: 3.86%); format: functional, var grubii H99
[18] = system: Candida albicans; experiment: Antifungal activity against Candida albicans 7781 after 48 hrs by spectrophotometery; format: functional; settings: Candida albicans, 7781, 48 h
[19] = system: Cryptococcus neoformans; experiment: Induction of cell cycle arrest in Cryptococcus neoformans H99 assessed as accumulation at S phase at 4 ug/ml after 24 hrs by propidium iodide-staining based FACS analysis (reference value: 51.64%); format: functional, var grubii H99
[20] = system: Cryptococcus neoformans; experiment: Antifungal activity against Cryptococcus neoformans H99 assessed as fragmented nuclei at 4 ug/ml after 24 hrs by TEM analysis; format: functional, organism-based; settings: var grubii H99
[21] = system: Nannizzia gypsea; experiment: Antifungal activity against Microsporum gypseum MZC after 48 hrs by spectrophotometery; format: functional
[22] = system: Aspergillus fumigatus; experiment: Antifungal activity against Aspergillus fumigatus 7544 after 48 hrs by spectrophotometery; format: functional; settings: Aspergillus fumigatus, 7544, 48 h
[23] = system: Candida albicans; experiment: Antifungal activity against Candida albicans 0304103 after 48 hrs by spectrophotometery; format: functional; settings: Candida albicans, 0304103, 48 h
[24] = Half life in ICR mouse liver microsomes at 1 uM measured up to 45 mins in presence of NADPH by LC-MS/MS analysis; format: ADME, Microsome

## Clc1cccc(NCCCn2c3c(c4ccccc42)CCNC3)c1.O=C(O)C(F)(F)F
[1]
  MIC80: 8 µg/mL

## COc1ccc2c3c(n(CCCOc4ccc(Cl)cc4)c2c1)CNCC3.O=C(O)C(F)(F)F
[1]
  MIC80: 2 µg/mL

## c1ccc2c(c1)c1c(n2CCN2CCOCC2)CNCC1
[1]
  MIC80: 64 µg/mL (≈ 224 µM)

## OC(Cn1cncn1)(Cn1cncn1)c1ccc(F)cc1F [FLUCONAZOLE]
[2]
  Activity: Active
[3]
  MIC80: 4 µg/mL (≈ 13.1 µM)
[4]
  MIC80: 2 µg/mL (≈ 6.53 µM)
[1]
  MIC80: 4 µg/mL (≈ 13.1 µM)
[5]
  Activity: inactive
[6]
  MIC80: 4 µg/mL (≈ 13.1 µM)
[7]
  Activity: inactive
[8]
  Activity: 50.86%
[9]
  Activity: Active
[10]
  Activity: inactive
[11]
  inhibition: inactive
[12]
  MIC80: 2 µg/mL (≈ 6.53 µM)
[13]
  Activity: inactive
[14]
  Activity: inactive
[15]
  MIC80: 4 µg/mL (≈ 13.1 µM)
[16]
  MIC80: 32 µg/mL (≈ 104 µM)
[17]
  Activity: 0.96%
[18]
  MIC80: 32 µg/mL (≈ 104 µM)
[19]
  Activity: 48.17%
[20]
  Activity: Active
[21]
  MIC80: 16 µg/mL (≈ 52.2 µM)
[22]
  MIC80: > 64 µg/mL
[23]
  MIC80: > 64 µg/mL

## Clc1ccc(OCCCn2c3c(c4cccc(Cl)c42)CCNC3)cc1.O=C(O)C(F)(F)F
[1]
  MIC80: 2 µg/mL

## Fc1ccccc1OCCCn1c2c(c3ccccc31)CCNC2.O=C(O)C(F)(F)F
[1]
  MIC80: 16 µg/mL

## Fc1ccc(OCCCn2c3c(c4ccccc42)CCNC3)cc1.O=C(O)C(F)(F)F
[1]
  MIC80: 8 µg/mL

## Cc1ncc2n1-c1ccc(Cl)cc1C(c1ccccc1F)=NC2 [MIDAZOLAM]
[24]
  half-life at 1 µM: 2 min

## Fc1ccccc1NCCCn1c2c(c3ccccc31)CCNC2.O=C(O)C(F)(F)F
[1]
  MIC80: 16 µg/mL

## Brc1cccc(OCCCn2c3c(c4ccccc42)CCNC3)c1.O=C(O)C(F)(F)F
[1]
  MIC80: 4 µg/mL

## COc1cccc(NCCCn2c3c(c4ccccc42)CCNC3)c1.O=C(O)C(F)(F)F
[1]
  MIC80: 32 µg/mL

## Clc1ccccc1OCCCn1c2c(c3ccccc31)CCNC2.O=C(O)C(F)(F)F
[1]
  MIC80: 4 µg/mL

## O=C(O)C(F)(F)F.O=[N+]([O-])c1ccc(OCCCn2c3c(c4ccccc42)CCNC3)cc1
[1]
  MIC80: 16 µg/mL

## CCN(CC)CCCn1c2c(c3ccccc31)CCNC2
[1]
  MIC80: 64 µg/mL (≈ 224 µM)

## C1=CCN(CCCn2c3c(c4ccccc42)CCNC3)C1
[1]
  MIC80: 64 µg/mL (≈ 227 µM)

## Clc1ccc(OCCCn2c3c(c4c(Cl)cccc42)CCNC3)cc1.O=C(O)C(F)(F)F
[1]
  MIC80: 4 µg/mL

## COc1ccccc1OCCCn1c2c(c3ccccc31)CCNC2.O=C(O)C(F)(F)F
[1]
  MIC80: 32 µg/mL

## CCOc1ccc(NCCCn2c3c(c4ccccc42)CCNC3)cc1.O=C(O)C(F)(F)F
[1]
  MIC80: 32 µg/mL

## Clc1ccc(OCCCn2c3c(c4c(Br)cccc42)CCNC3)cc1.O=C(O)C(F)(F)F
[1]
  MIC80: 8 µg/mL

## Fc1cccc(OCCCn2c3c(c4ccccc42)CCNC3)c1.O=C(O)C(F)(F)F
[1]
  MIC80: 8 µg/mL

## COc1ccc2c(c1)c1c(n2CCCOc2ccc(Cl)cc2)CNCC1.O=C(O)C(F)(F)F
[1]
  MIC80: 4 µg/mL

## c1ccc2c(c1)c1c(n2CCCN2CCCC2)CNCC1
[1]
  MIC80: 64 µg/mL (≈ 226 µM)

## CCOc1ccccc1NCCCn1c2c(c3ccccc31)CCNC2.O=C(O)C(F)(F)F
[1]
  MIC80: 32 µg/mL

## COc1ccc(N2CCN(CCCn3c4c(c5ccccc53)CCNC4)CC2)cc1
[1]
  MIC80: 64 µg/mL (≈ 158 µM)

## Brc1cccc(NCCCn2c3c(c4ccccc42)CCNC3)c1.O=C(O)C(F)(F)F
[1]
  MIC80: 8 µg/mL

## c1ccc(C2CCN(CCCn3c4c(c5ccccc53)CCNC4)CC2)cc1
[1]
  MIC80: 32 µg/mL (≈ 85.7 µM)

## Fc1cccc(NCCCn2c3c(c4ccccc42)CCNC3)c1.O=C(O)C(F)(F)F
[1]
  MIC80: 16 µg/mL

## CCOc1cccc(NCCCn2c3c(c4ccccc42)CCNC3)c1.O=C(O)C(F)(F)F
[1]
  MIC80: 64 µg/mL

## Cc1cccc2c3c(n(CCCOc4ccc(Cl)cc4)c12)CNCC3.O=C(O)C(F)(F)F
[1]
  MIC80: 2 µg/mL

## O=C1c2ccccc2C(=O)N1CCCn1c2c(c3ccccc31)CCNC2
[1]
  MIC80: 64 µg/mL (≈ 178 µM)

— ChEMBL document CHEMBL4400538, “Discovery of Carboline Derivatives as Potent Antifungal Agents for the Treatment of Cryptococcal Meningitis” (J Med Chem, 2019)
